Experimental data published in US6455077B2, “Herbal composition and method of manufacturing such composition for the management of gynecological disorders” (Dabur Research Foundation, priority 2001, dated 2002).

System: rat isolated uterus
Experiment: Uterotonic (oxytocic) activity on isolated uterus of stilbestrol-primed rats, compared with 5-HT
Set-up: species or system Wistar female albino rats
Conditions: isolated uterus horn of stilbestrol dipropionate (1 mg/kg i.p., 24 h) pre-treated rats, de Jalon's solution
Procedure: The above two samples were assayed for their effect on Uterotonic activity using Wistar female albino rats.
The uterotonic property of the test extracts were assessed in two test areas.
1. The oxytocic activity of the Sample A and Sample B is compared with uterine stimulant 5-HT.
Female rats weighing between 150-200 g were pre-treated with stilbestrol dipropionate, 1 mg/kg intra peritoneally 24 h prior to the experiment. The rats were killed by a swift blow on the head and exsanguinated. The uterus of rat dissected and the two horns divided. One horn is suspended in the bath. The rhythmic contractions are abolished by using de jalon's solution. When the spontaneous contractions became regular, the responses to Extracts of Sample A and Sample B and other agonists were recorded using a Frontal lever, isometrically connected to a polygraph.

## CN1CC(=O)N=C1N.NCCc1c[nH]c2ccc(O)cc12.O=S(=O)(O)O [Formulation 5-HT, 5-hydroxytryptamine creatinine sulphate]
  In-vitro treatment (uterine contraction): 1. The control drug 5-HT induced a dose related increase in the height of contraction of rat isolated uterus. and Uterine contraction
